The target of the assay is human MRGPRD (Homo sapiens, UniProt Q8TDS7). The assay is described as follows: MRGPRD antagonist activity, IP-One HTRF assay in CHO cells stably expressing human MRGPRD (versus 100 μM β-Alanine agonist). It counts as cell-based. The essentials: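 IP-1 HTRF read-out, with IC50 from HTRF ratio curves and percent antagonism relative to maximal efficacy (mean, SEM). Antagonists and agonist were co-incubated 1 h at 37 °C plus 1 h at room temperature on overnight-plated MRGPRD-CHO cells in LiCl-containing Tris buffer, pH 8.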
Sequence of human MRGPRD (Q8TDS7 whole entry): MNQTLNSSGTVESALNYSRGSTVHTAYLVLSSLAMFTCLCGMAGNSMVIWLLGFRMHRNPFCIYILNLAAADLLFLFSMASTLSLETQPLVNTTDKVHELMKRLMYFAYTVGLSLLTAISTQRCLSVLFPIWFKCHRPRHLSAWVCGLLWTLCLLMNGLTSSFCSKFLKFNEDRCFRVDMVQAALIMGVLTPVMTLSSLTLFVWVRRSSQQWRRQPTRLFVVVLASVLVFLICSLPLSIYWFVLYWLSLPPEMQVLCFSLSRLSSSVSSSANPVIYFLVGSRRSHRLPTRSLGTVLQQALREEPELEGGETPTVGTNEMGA
(In general: In TR-FRET formats the signal depends on donor and acceptor labels being close together.)

One may read the IC50 as the concentration at which inhibition is half-maximal. A high value points to weaker potency.

Turning to `NC(=O)c1ccc(-c2ccc(-n3nnc(C(=O)NC4(c5cccnc5)CC4)c3C3CC3)cc2)cn1` [Compound 18-10], the half-inhibitory concentration (IC50) was 1000 to 3000 nM.
Consider `Cc1ncccc1CNC(=O)c1nnn(-c2ccc(-c3c(C)nn(C)c3C)cc2)c1C1CC1` [Compound 15-11], for which the 50% inhibitory concentration (IC50) was 100 to 500 nM.
On to `CC(=O)c1ccccc1-c1ccc(-n2nnc(C(=O)Nc3ccncc3)c2C2CC2)cc1` [Compound 7-134], for which the half-inhibitory concentration (IC50) lay in the range of 500 to 1000 nM.
For `N#Cc1ccc(-n2nnc(C(=O)Nc3ccncc3)c2C2CC2)cc1` [Compound 2-1], the concentration for half-maximal inhibition (IC50) was above 3000 nM.
In the case of `O=C(Nc1ccncc1)c1nnn(-c2ccc(-c3cccc(C4CC4)c3)cc2)c1C1CC1` [Compound 7-56] it was 100 to 500 nM.
Consider `Cc1nn(-c2ccccc2)c(C)c1-c1cccc(-n2nnc(C(=O)Nc3ccncc3)c2C2CC2)c1` [Compound 7-255], for which the IC50 was in the range of 500 to 1000 nM.
`CCc1ccc(-c2ccc(-n3nnc(C(=O)Nc4ccnc(C)c4)c3C3CC3)cc2)cn1` [Compound 15-23] yielded an IC50 of 100 to 500 nM.
The same measure for `O=C(Nc1ccncc1)c1nnn(-c2ccc(-c3ccccn3)cc2)c1C1CC1` [Compound 7-200]: 1000 to 3000 nM; for `COc1cc(NC(=O)c2nnn(-c3ccc(-c4ccccc4)cc3)c2C2CC2)c2cn[nH]c2c1` [Compound 14-84]: above 3000 nM.
The compound `O=C(Nc1ccncc1)c1nnn(-c2ccc(-c3cnn(C4CCCC4)c3)cc2)c1C1CC1` [Compound 7-63] showed an IC50 of 100 to 500 nM.
Take `O=C(Nc1ccncc1)c1nnn(-c2ccc(-c3cccc(O)c3)cc2)c1C1CC1` [Compound 7-170]: the IC50 was 1000 to 3000 nM.
`CC(C)n1cc(NC(=O)c2nnn(-c3ccc(-c4ccccc4)cc3)c2C2CC2)cn1` [Compound 14-73] came in with an IC50 above 3000 nM.
In the case of `CC(C)c1ccc(-c2ccc(-n3nnc(C(=O)Nc4ccncc4)c3C3CC3)cc2)cc1` [Compound 7-214] it was above 3000 nM.
For the compound `O=C(Nc1ccncc1)c1nnn(-c2cccc(-c3ccccc3C(F)(F)F)c2)c1C1CC1` [Compound 7-285], the IC50 was in the range of 1000 to 3000 nM.
Take `Cc1cc(NC(=O)c2nnn(-c3ccc(-c4ccc(C(F)F)nc4)cc3)c2C2CC2)ccn1` [Compound 15-20]: the half-maximal inhibitory concentration (IC50) fell in the range of 100 to 500 nM.
In turn, `Cc1ccc(CNC(=O)c2nnn(-c3cccc(-c4ccc(C#N)cc4)c3)c2C2CC2)cn1` [Compound 7-7] had a half-inhibitory concentration (IC50) above 3000 nM.
Regarding `Cc1cc(-c2ccc(-n3nnc(C(=O)Nc4ccncc4)c3C3CC3)cc2)on1` [Compound 7-198], the IC50 fell in the range of 1000 to 3000 nM.
Consider `CN(C)c1cccc(-c2ccc(-n3nnc(C(=O)Nc4ccncc4)c3C3CC3)cc2)c1` [Compound 7-36], for which the IC50 was 100 to 500 nM.
On to `COc1ccc(-c2cccc(-n3nnc(C(=O)Nc4ccncc4)c3C3CC3)c2)cc1OC` [Compound 7-313], for which the half-inhibitory concentration (IC50) lay within 1000 to 3000 nM.
Regarding `Cn1ncc(-c2ccc(-n3nnc(C(=O)Nc4ccncc4)c3C3CC3)cc2)c1-c1ccccc1` [Compound 7-144], the 50% inhibitory concentration (IC50) was 500 to 1000 nM.
In turn, `COc1cc(C#N)ccc1-c1ccc(-n2nnc(C(=O)Nc3ccncc3)c2C2CC2)cc1` [Compound 7-24] displayed a concentration for half-maximal inhibition (IC50) of 100 to 500 nM.
Compound `O=C(Nc1ccncc1)c1nnn(-c2ccc(-c3ccnn3C3CCC3)cc2)c1C1CC1` [Compound 7-116] showed an IC50 of 500 to 1000 nM.
As to `Cc1cc(NC(=O)c2nnn(-c3ccc(-c4c(C)nn5ccccc45)cc3)c2C2CC2)ccn1` [Compound 8-1], the 50% inhibitory concentration (IC50) was below 100 nM.
`N#Cc1ccc(-c2ccc(-n3nnc(C(=O)Nc4cc(F)nc(F)c4)c3C3CC3)cc2)cc1F` [Compound 9-37]: the half-inhibitory concentration (IC50) is 500 to 1000 nM.
On to `Cc1ccc(C2(NC(=O)c3nnn(-c4ccc(-c5c(C)nn(C)c5C)cc4)c3C3CC3)CC2)cn1` [Compound 15-17], for which the concentration for half-maximal inhibition (IC50) was 1000 to 3000 nM.
In the case of `Cc1cc(NC(=O)c2nnn(C3CC=C(c4c(C)nn(C)c4C)CC3)c2C2CC2)ccn1` (stereo not shown) [Compound 12-1, 5-cyclopropyl-N-(2-methylpyridin-4-yl)-1-(4-(1,3,5-trimethyl-1H-pyrazol-4-yl)cyclohex-3-en-1-yl)-1H-1,2,3-triazole-4-carboxamide] it was 100 to 500 nM; in that of `C#Cc1cc(NC(=O)c2nnn(-c3ccc(-c4ccccc4)cc3)c2C2CC2)ccn1` [Compound 14-18], 100 to 500 nM; in that of `Cn1nc(-c2ccc(-n3nnc(C(=O)Nc4ccncc4)c3C3CC3)cc2)cc1N` [Compound 7-215], above 3000 nM.
For `Cc1nn(-c2ccccc2)c(C)c1-c1ccc(-n2nnc(C(=O)NCc3ccc(C(C)C)nc3)c2C2CC2)cc1` [Compound 9-15], the IC50 is 100 to 500 nM.
On to `CCn1cc(C2(NC(=O)c3nnn(-c4ccc(-c5ccc(C#N)c(F)c5)cc4)c3C(C)C)CC2)cn1` [Compound 17-23], for which the half-maximal inhibitory concentration (IC50) fell in the range of 100 to 500 nM.
For the compound `CCn1nc(C)c(-c2ccc(-n3nnc(C(=O)NCc4cncc(C)c4)c3C3CC3)cc2)c1C` [Compound 9-19], the IC50 fell in the range of 100 to 500 nM.
The same measure for `Cc1c(-c2ccc(-n3nnc(C(=O)Nc4ccncc4)c3C3CC3)cc2)cnn1-c1ccccc1` [Compound 7-26]: 100 to 500 nM; for `Cc1c[nH]nc1-c1ccc(-n2nnc(C(=O)Nc3ccncc3)c2C2CC2)cc1` [Compound 7-119]: 500 to 1000 nM; for `Cc1nn(C)c(CO)c1-c1ccc(-n2nnc(C(=O)Nc3ccncc3)c2C2CC2)cc1` [Compound 7-133]: 500 to 1000 nM.
`Cc1nn(C)c(C)c1-c1ccc(-n2nnc(C(=O)Nc3ccncc3)c2C2CC2)cc1C#N` [Compound 7-250] had an IC50 of 500 to 1000 nM.
In turn, `CC(NC(=O)c1nnn(-c2ccc(-c3ccccc3)cc2)c1C1CC1)c1cncnc1` (stereo not shown) [Compound 14-8] gave an IC50 above 3000 nM.
Regarding `C#Cc1ccc(-c2ccc(-n3nnc(C(=O)Nc4ccncc4)c3C3CC3)cc2)cc1` [Compound 7-150], the IC50 is 500 to 1000 nM.
For the compound `O=C(Nc1ccncc1)c1nnn(-c2ncc(-c3ccccc3)s2)c1C1CC1` [Compound 5-2], the IC50 was above 3000 nM.
With `Cc1cc(NC(=O)c2nnn(-c3ccc(-c4ccccc4)cc3F)c2C2CC2)ccn1` [Compound 7-21], the IC50 is 100 to 500 nM.
In the case of `O=C(Nc1ccncc1)c1nnn(-c2ccc(-c3ccc(O)cc3)cc2)c1C1CC1` [Compound 7-58] it was 100 to 500 nM; in that of `CC(=O)c1ccc(-c2cccc(-n3nnc(C(=O)Nc4ccncc4)c3C3CC3)c2)c(C)c1` [Compound 7-263], 500 to 1000 nM; in that of `Cn1c(CNC(=O)c2nnn(-c3ccc(-c4ccc(C#N)cc4)cc3)c2C2CC2)nc2ccccc21` [Compound 15-5], 500 to 1000 nM.
With `Cn1cc(C2(NC(=O)c3nnn(-c4ccc(-c5ccccc5)cc4)c3C3CC3)CC2)cn1` [Compound 14-69], the concentration for half-maximal inhibition (IC50) fell in the range of 1000 to 3000 nM.
For the compound `N#Cc1ccc(-c2ccc(-n3nnc(C(=O)NC4(c5cncc(Cl)c5)CC4)c3C3CC3)cc2)cc1` [Compound 18-1], the IC50 was 100 to 500 nM.
The same measure for `O=C(N[C@H]1CCC[C@@H]1O)c1nnn(-c2ccc(-c3ccccc3)cc2)c1C1CC1` [Compound 14-82]: above 3000 nM; for `O=C(NC1CC(F)(F)C1)c1nnn(-c2ccc(-c3ccccc3)cc2)c1C1CC1` [Compound 14-56]: 1000 to 3000 nM; for `O=C(Nc1ccncc1)c1nnn(-c2cccc(-c3ccccc3F)c2)c1C1CC1` [Compound 7-298]: 1000 to 3000 nM.
The compound `CC(NC(=O)c1nnn(-c2ccc(-c3ccccc3)cc2)c1C1CC1)c1ccn(C)n1` (stereo not shown) [Compound 14-33] yielded a half-inhibitory concentration (IC50) of 1000 to 3000 nM.
The compound `Cc1nn(C)c(C)c1-c1ccc(-n2nnc(C(=O)NC3CC3)c2C(C)C)cc1` [Compound 17-34] displayed an IC50 above 3000 nM.
In the case of `CCc1ccccc1-n1nnc(C(=O)Nc2ccncc2)c1C1CC1` [Compound 3-3] it was 1000 to 3000 nM.
The same measure for `CCn1cc(CNC(=O)c2nnn(-c3ccc(-c4ccc(C#N)cc4)cc3F)c2C2CC2)cn1` [Compound 22-3]: 1000 to 3000 nM.
`Cc1nn2cccnc2c1-c1ccc(-n2nnc(C(=O)NC3(c4cncc(Cl)c4)CC3)c2C2CC2)cc1` [Compound 10-2] registered an IC50 above 3000 nM.
The compound `COc1ccc(-c2ccc(-n3nnc(C(=O)Nc4ccncc4)c3C3CC3)cc2)cc1` [Compound 7-27] had an IC50 of 100 to 500 nM.
Take `CCn1cc(CNC(=O)c2nnn(-c3ccc(-c4cccc(C#N)c4)cc3)c2C2CC2)cn1` [Compound 15-15]: the half-maximal inhibitory concentration (IC50) fell in the range of 1000 to 3000 nM.
`CC(=O)c1ccc(-c2ccc(-n3nnc(C(=O)Nc4ccncc4)c3C3CC3)cc2)cc1C` [Compound 7-174] came in with an IC50 of 1000 to 3000 nM.
`CC(C)C(=O)c1cccc(-c2ccc(-n3nnc(C(=O)Nc4ccncc4)c3C3CC3)cc2)c1` [Compound 7-67] came in with an IC50 of 100 to 500 nM.
In the case of `Cc1cncc(C2(NC(=O)c3nnn(-c4ccc(-c5ccc(C#N)cc5)cc4)c3C3CC3)CC2)c1` [Compound 18-5], the IC50 lay within 1000 to 3000 nM.
As to `CCn1cc(-c2ccc(-n3nnc(C(=O)Nc4ccncc4)c3C3CC3)cc2)cn1` [Compound 7-97], the half-maximal inhibitory concentration (IC50) lay in the range of 100 to 500 nM.
In turn, `Cc1cc(NC(=O)c2nnn(-c3ccc(-c4ccc(C#N)cc4)cc3)c2C2CC2)ccn1` [Compound 7-61] displayed a concentration for half-maximal inhibition (IC50) of 100 to 500 nM.
As for `COc1cc(C#N)ccc1-c1ccc(-n2nnc(C(=O)NC3(c4cncc(Cl)c4)CC3)c2C2CC2)cc1` [Compound 18-15], the IC50 lay in the range of 500 to 1000 nM.
`Cc1[nH]nc(-c2ccc(-n3nnc(C(=O)Nc4ccncc4)c3C3CC3)cc2)c1Cl` [Compound 7-128] yielded an IC50 of 500 to 1000 nM.
`CC(=O)c1ccc(-c2cccc(-n3nnc(C(=O)Nc4ccncc4)c3C3CC3)c2)cc1F` [Compound 7-280] came in with an IC50 of 500 to 1000 nM.
`CC(NC(=O)c1nnn(-c2ccc(-c3ccccc3)cc2)c1C1CC1)c1nccs1` (stereo not shown) [Compound 14-3] showed an IC50 above 3000 nM.
In the case of `O=C(Nc1ccncc1)c1nnn(-c2ccc(-c3ccc(CC(F)(F)F)cc3)cc2)c1C1CC1` [Compound 7-59], the half-maximal inhibitory concentration (IC50) fell in the range of 100 to 500 nM.
In turn, `Cc1ccc(-n2nnc(C(=O)Nc3ccncc3)c2C2CC2)c(Cl)c1` [Compound 2-7] returned an IC50 of 1000 to 3000 nM.
As for `O=C(Nc1ccncc1)c1nnn(-c2ccc(-c3ccn(-c4ccccc4)n3)cc2)c1C1CC1` [Compound 7-103], the IC50 fell in the range of 100 to 500 nM.
Turning to `CCn1cc(C(C)NC(=O)c2nnn(-c3ccc(-c4ccccc4)cc3)c2C2CC2)cn1` (stereo not shown) [Compound 14-27], the half-maximal inhibitory concentration (IC50) is 500 to 1000 nM.

For the origin of these results see patent publication US20260001871A1, “TRIAZOLE DERIVATIVES AS MODULATORS OF MAS-RELATED G-PROTEIN RECEPTOR D” (ESCIENT PHARMACEUTICALS, INC., priority 2022, published 2026).
